Experimental data taken from ChEMBL document CHEMBL2074161, “Substrate upregulation of the human small intestinal peptide transporter, hPepT1” (J Physiol, 1998).
Peptide text beside a SMILES is read from it.

Target: T1, Solute carrier family 15 member 1 (Homo sapiens) (UniProt P46059)
T1 sequence (whole entry): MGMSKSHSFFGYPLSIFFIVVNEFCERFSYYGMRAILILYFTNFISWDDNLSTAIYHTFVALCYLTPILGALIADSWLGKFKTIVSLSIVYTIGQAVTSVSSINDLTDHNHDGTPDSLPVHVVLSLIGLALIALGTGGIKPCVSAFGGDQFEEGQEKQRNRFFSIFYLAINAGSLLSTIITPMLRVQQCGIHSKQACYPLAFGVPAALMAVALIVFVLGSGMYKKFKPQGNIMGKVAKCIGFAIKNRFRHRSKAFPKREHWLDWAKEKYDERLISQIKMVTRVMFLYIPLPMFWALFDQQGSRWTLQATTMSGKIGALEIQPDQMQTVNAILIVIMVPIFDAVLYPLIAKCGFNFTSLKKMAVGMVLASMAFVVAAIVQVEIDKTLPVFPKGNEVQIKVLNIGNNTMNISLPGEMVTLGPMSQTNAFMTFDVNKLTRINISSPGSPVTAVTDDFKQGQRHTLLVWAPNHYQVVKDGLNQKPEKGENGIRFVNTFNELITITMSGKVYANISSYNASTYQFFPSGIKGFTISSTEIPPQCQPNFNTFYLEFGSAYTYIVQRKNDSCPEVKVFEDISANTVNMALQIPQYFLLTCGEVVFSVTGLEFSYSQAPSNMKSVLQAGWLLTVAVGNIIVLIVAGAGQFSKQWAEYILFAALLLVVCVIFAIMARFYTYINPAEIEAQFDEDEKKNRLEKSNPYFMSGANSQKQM
Test: TP_TRANSPORTER: upregulation of mRNA and protein in Caco-2 cells
Type: functional, cell-based

## NCC(=O)N[C@@H](CCC(N)=O)C(=O)O (H-Gly-Gln-OH)
  Activity: inducer [+]
